Source: US20050107289A1, “Anti-microbial peptides and compositions” (priority 2001, published 2005)
Where two headings read alike, the source gives them in different places. Non-standard residues stand in square brackets, D forms with d. Residues, ends and D or L forms follow the SMILES beside them.

Columns and labels:
[1] = tested on: S. aureus (MRSA) ATCC 33591; format: cell-based, Staphylococcus aureus; details: Table 9
Protocol: (§1) The antimicrobial activity of the peptides was determined using a broth dilution assay essentially as descried in the guidelines of the National Committee for […] (NCCLS) [National Committee for Clinical Laboratory Standards. Methods for dilution antimicrobial susceptibility tests for bacteria that grow aerobically. Fourth edition. Approved Standard (1997). Document M7-A4. […] The microdilution method has the advantages of requiring less amount of peptide for each assay and the possibility of multiple simultaneous inoculations and was used in most studies. Several of the strains of bacteria tested are further described in Table 3.
(§2) Preparation of peptide solutions. Stock peptide solutions were prepared in 5% DMSO in aq. sucrose (9%). Determination of peptide concentrations was done by quantitative HPLC analysis using known concentrations of internal standards and/or by measuring UV absorption of tryptophane-containing peptide solutions in H2O (λ=280 εTrp: 5690). Serial 2-fold dilutions were made in the above DMSO/aq. sucrose (9%) mixture with concentrations ranging approximately 400-2 μg/ml and aliquots were dispensed in test tubes (100 μl) for the macrodilution test or in microtiter plates (20 μl) for the microdilution assays.
(§3) Inoculum preparation. Overnight cultures of different microorganisms grown in suitable media were diluted 4000 times to an approximate inoculum size of 2.5×10^5 cfu/ml.
(§4) Macrodilution method. Macrodilution methods were performed using procedures similar to those described in the National Committee for Clinical Laboratory Standards. Methods for dilution antimicrobial susceptibility tests for bacteria that grow aerobically. Fourth edition. Approved Standard (1997). Document M7-A4. (NCCLS,Villanova, Pa., 1997). Two ml aliquots of the above inoculum were dispensed to test tubes containing different peptide solutions.
(§5) Microdilution method. Microdilution methods were performed using procedures similar to those described in the National Committee for Clinical Laboratory Standards. Methods for dilution antimicrobial susceptibility tests for bacteria that grow aerobically. Fourth edition. Approved Standard (1997). Document M7-A4.

murine red blood cells = assay: Red blood cell hemolysis; format: cell-based, mouse
Protocol: Selectivity of cyclic peptides for bacterial over mammalian cells was evaluated by measuring red blood cell hemolytic activities as described in Tosteson, M. T. Holmes, S. J., Razin, M. and Tosteson, D. C. Melittin Lysis of Red Cells, J. Membrane Biol. 87, 35-44(1985). Heparinized murine blood was centrifuged at 1000×g for 10 minutes. The supernatant and the buffy coat were removed. Erythrocytes were washed three times with 0.9% saline solution and then resuspended to a concentration of 5% in saline containing 10% FBS (v/v). Red blood cells were then treated with serial dilutions of test peptides in a 96 well plate at 37° C. for 30 minutes. Control samples included a saline solution arid 1% Triton X-100 as 0 and 100% hemolysis, respectively. In some cases, mellitin was used as a further control. Mellitin is a linear peptide that is hemolytic against mammalian red blood cells in vitro at a concentration of about 10 μg/ml. Plates were centrifuged at 1000 g for 10 minutes. Aliquots of the supernatant were diluted 2 times with saline solution and the absorbance was measured at 560 nm.

[2] = tested on: vancomycin-resistant Enterococus faecalis (VRE)(ATCC 51575); format: cell-based, Enterococcus faecalis; set-up: key to VRE (in vitro activity): peptide concentration in μg/ml (broth dilution assay); details: Table 9
Protocol: as §1, §2, §3, §4, §5

[3] = media b: cation adjusted Meuller Hinton broth (MHBII)
[4] = media c: Brain Heart Infusion (BHI)
[5] = media a: anti-microbial media-3 (AM-3)

Structure (SMILES)	MRSA (in vitro activity) [1, 3]	RBC Hemolysis (HD50) (murine red blood cells)	VRE (in vitro activity) [2, 4]	MRSA (in vitro activity) ([1]; media b: cation adjusted Meuller Hinton broth (MHBII), listed as [KSKLRLRL] (105))	VRE (in vitro activity) ([2]; media c: Brain Heart Infusion (BHI), listed as [KSKLRLRL] (105))	MRSA (in vitro activity) [1, 5]	VRE (in vitro activity) ([2]; media a: AM-3)	VRE (in vitro activity) ([2]; media b: MHBII)
CC(C)C[C@H]1NC(=O)[C@H](CCCCN)NC(=O)[C@@H](CC(N)=O)NC(=O)[C@H](CCC(N)=O)NC(=O)[C@@H](CC(N)=O)NC(=O)[C@H](CCCCN)NC(=O)[C@@H](CC(C)C)NC(=O)[C@H](Cc2c[nH]c3ccccc23)NC1=O [SEQ ID NO:90, [KNQNKLWL]] (cyclo(K[dN]Q[dN]K[dL]W[dL]))	>200	>200	>200	–	–	–	–	–
CC(C)C[C@H]1NC(=O)[C@H](Cc2ccccc2)NC(=O)[C@@H](CCCCN)NC(=O)[C@H](CO)NC(=O)[C@@H](CO)NC(=O)[C@H](CCCCN)NC(=O)[C@@H](CC(C)C)NC(=O)[C@H](Cc2ccccc2)NC1=O [SEQ ID NO:79, [KSSKFLFL]] (cyclo(K[dS]S[dK]F[dL]F[dL]))	43	>200	43	–	–	–	–	–
CC(C)C[C@H]1NC(=O)[C@H](C)NC(=O)[C@@H](CCCCN)NC(=O)[C@H](CO)NC(=O)[C@@H](CO)NC(=O)[C@H](CCCCN)NC(=O)[C@@H](CC(C)C)NC(=O)[C@H](C)NC1=O [SEQ ID NO:78, [KSSKALAL]] (cyclo(K[dS]S[dK]A[dL]A[dL]))	>240	>240	>240	–	–	–	–	–
CC(C)C[C@H]1NC(=O)[C@H](CCCCN)NC(=O)[C@@H](CO)NC(=O)[C@H](CCCCN)NC(=O)[C@@H](CC(C)C)NC(=O)[C@H](CCCNC(=N)N)NC(=O)[C@@H](CC(C)C)NC(=O)[C@H](CCCNC(=N)N)NC1=O [SEQ ID NO:105, [KSKLRLRL]] (cyclo(K[dL]R[dL]R[dL]K[dS]))	–	>240	–	>240	>240	–	–	–
CC(C)C[C@@H]1NC(=O)[C@@H](Cc2c[nH]c3ccccc23)NC(=O)[C@H](CCCCN)NC(=O)[C@@H](Cc2ccccc2)NC(=O)[C@H](CCCCN)NC(=O)[C@@H](Cc2c[nH]c3ccccc23)NC1=O [SEQ ID NO:128, [KFKWLW]] (cyclo(K[dF]K[dW]L[dW]))	–	>61	–	–	–	14	43	–
CC(C)C[C@@H]1NC(=O)[C@@H](Cc2c[nH]c3ccccc23)NC(=O)[C@H](Cc2ccccc2)NC(=O)[C@@H](CCCNC(=N)N)NC(=O)[C@H](CCC(N)=O)NC(=O)[C@@H](CCCNC(=N)N)NC(=O)[C@H](Cc2c[nH]c3ccccc23)NC(=O)[C@@H](Cc2c[nH]c3ccccc23)NC1=O [SEQ ID NO:68, [QRFWLWWR]] (cyclo(Q[dR]F[dW]L[dW]W[dR]))	7.5	60	–	–	–	–	–	3.8
CC(C)C[C@@H]1NC(=O)[C@@H](Cc2c[nH]c3ccccc23)NC(=O)[C@H](CCC(N)=O)NC(=O)[C@@H](Cc2ccccc2)NC(=O)[C@H](CCCCN)NC(=O)[C@@H](Cc2c[nH]c3ccccc23)NC1=O [SEQ ID NO:129, [KFQWLW]] (cyclo(K[dF]Q[dW]L[dW]))	–	>81	–	–	–	25	10	–
CC(C)C[C@@H]1NC(=O)[C@@H](Cc2c[nH]c3ccccc23)NC(=O)[C@H](CCCCN)NC(=O)[C@@H](CO)NC(=O)[C@H](CCCCN)NC(=O)[C@@H](Cc2c[nH]c3ccccc23)NC1=O [SEQ ID NO:126, [KSKWLW]] (cyclo(K[dS]K[dW]L[dW]))	–	>65	–	–	–	19	38	–
CC(C)C[C@H]1NC(=O)[C@H](CCCCN)NC(=O)[C@@H](CO)NC(=O)[C@H](CCCCN)NC(=O)[C@@H](CC(C)C)NC(=O)[C@H](Cc2c[nH]cn2)NC(=O)[C@@H](CC(C)C)NC(=O)[C@H](Cc2c[nH]cn2)NC1=O [SEQ ID NO:103, [KSKLHLHL]] (cyclo(K[dS]K[dL]H[dL]H[dL]))	>320	>320	>320	–	–	–	–	–
CC(C)C[C@@H]1NC(=O)[C@@H](Cc2c[nH]c3ccccc23)NC(=O)[C@H](CCC(N)=O)NC(=O)[C@@H](Cc2c[nH]cn2)NC(=O)[C@H](CCCCN)NC(=O)[C@@H](Cc2c[nH]c3ccccc23)NC1=O [SEQ ID NO:120, [KHQWLW]] (cyclo(K[dH]Q[dW]L[dW]))	–	115.0	–	–	–	43	57	–
CC(C)C[C@H]1NC(=O)[C@H](CCCCN)NC(=O)[C@@H](CO)NC(=O)[C@H](CCCCN)NC(=O)[C@@H](CC(C)C)NC(=O)[C@H](C(C)C)NC(=O)[C@@H](CC(C)C)NC(=O)[C@H](C(C)C)NC1=O [SEQ ID NO:60, [KSKLVLVL]] (cyclo(K[dS]K[dL]V[dL]V[dL]))	>220	>220	>220	–	–	–	–	–
CC(C)C[C@H]1NC(=O)[C@H](Cc2c[nH]c3ccccc23)NC(=O)[C@@H](Cc2ccccc2)NC(=O)[C@H](CCCCN)NC(=O)[C@@H](Cc2c[nH]c3ccccc23)NC(=O)[C@H](Cc2c[nH]cn2)NC(=O)[C@@H](CC(C)C)NC(=O)[C@H](Cc2c[nH]c3ccccc23)NC1=O [SEQ ID NO:99, [KFWLWLHW]] (cyclo(K[dF]W[dL]W[dL]H[dW]))	–	>25	–	–	–	21	21	–
CC[C@H](C)[C@@H]1NC(=O)[C@@H](CO)NC(=O)[C@H](CCCCN)NC(=O)[C@@H]([C@H](C)O)NC(=O)[C@H]([C@@H](C)CC)NC(=O)[C@@H](CCCNC(=N)N)NC1=O [SEQ ID NO:132, [KSIRIT]] (cyclo(K[dS]I[dR]I[dT]))	>200	175	>200	–	–	–	–	–
NCCCC[C@@H]1NC(=O)[C@@H](Cc2ccc(O)cc2)NC(=O)[C@H](CCC(N)=O)NC(=O)[C@@H](Cc2ccc(O)cc2)NC(=O)[C@H](CCCCN)NC(=O)[C@@H](CC(N)=O)NC(=O)[C@H](Cc2c[nH]c3ccccc23)NC(=O)[C@@H](CC(N)=O)NC1=O [SEQ ID NO:94, [KYQYKNWN]] (cyclo(K[dN]W[dN]K[dY]Q[dY]))	>200	>200	>200	–	–	–	–	–
CC(C)C[C@@H]1NC(=O)[C@@H](Cc2c[nH]c3ccccc23)NC(=O)[C@H](CCCCN)NC(=O)[C@@H](CO)NC(=O)[C@H](CCC(N)=O)NC(=O)[C@@H](CO)NC(=O)[C@H](CCCCN)NC(=O)[C@@H](Cc2c[nH]c3ccccc23)NC1=O [SEQ ID NO:92, [KSQSKWLW]] (cyclo(K[dS]Q[dS]K[dW]L[dW]))	9	195	18	–	–	–	–	–
CC(C)C[C@H]1NC(=O)CNC(=O)[C@@H](CC(C)C)NC(=O)[C@H](CCCCN)NC(=O)[C@@H](CO)NC(=O)[C@H](CCCCN)NC(=O)[C@@H](CC(C)C)NC(=O)CNC1=O [SEQ ID NO:56, [KSKLGLGL]] (cyclo(K[dS]K[dL]G[dL]G[dL]))	>240	>240	>240	–	–	–	–	–
NCCCC[C@@H]1NC(=O)[C@@H](Cc2ccccc2)NC(=O)[C@H](CCC(N)=O)NC(=O)[C@@H](Cc2ccccc2)NC(=O)[C@H](CCCCN)NC(=O)[C@@H](CC(N)=O)NC(=O)[C@H](Cc2c[nH]c3ccccc23)NC(=O)[C@@H](CC(N)=O)NC1=O [SEQ ID NO:98, [KFQFKNWN]] (cyclo(K[dF]Q[dF]K[dN]W[dN]))	>200	>280	>200	–	–	–	–	–
CC(C)C[C@H]1NC(=O)[C@H](CCCCN)NC(=O)[C@@H](CC(C)C)NC(=O)[C@H](CCCCN)NC(=O)[C@@H](CC(C)C)NC(=O)[C@H](CCCCN)NC(=O)[C@@H](CC(C)C)NC(=O)[C@H](CCCCN)NC1=O [SEQ ID NO:4, KLKLKLKL] (cyclo(K[dL]K[dL]K[dL]K[dL]))	>200	>200	>200	–	–	–	–	–
